Data reported in ChEMBL document CHEMBL3108747, “Synthesis and evaluation of novel cyclic Peptide inhibitors of lysine-specific demethylase 1” (ACS Med Chem Lett, 2014).
pIC50: −log10 of the molar value.

Key:
MCF7 = assay: cells; conditions: Homo sapiens, MCF7, 72 h
Description: Cytotoxicity against human MCF7 cells assessed as cell viability after 72 hrs by MTS assay

cells = conditions: Homo sapiens, Calu-6, 72 h
Description: Cytotoxicity against human Calu6 cells assessed as cell viability after 72 hrs by MTS assay

pIC50 (MCF7)	pIC50 (cells)	SMILES
3.81	3.90	CSCC[C@H](NC(=O)[C@@H](NC(=O)[C@H](CCCNC(=N)N)NC(=O)[C@H](C)N)[C@@H](C)O)C(=O)N[C@H]1CCCCNC(=O)CC[C@@H](C(=O)N[C@H](C(=O)NCC(=O)NCC(=O)N[C@@H](CCCCN)C(=O)N[C@@H](C)C(=O)N2CCC[C@H]2C(=O)N[C@@H](CCCNC(=N)N)C(=O)N[C@@H](CCCCN)C(=O)N[C@@H](CCC(N)=O)C(=O)N[C@@H](CC(C)C)C(=O)N[C@@H](C)C(N)=O)[C@@H](C)O)NC(=O)[C@H](CCCCN)NC(=O)[C@H](CCCNC(=N)N)NC(=O)[C@H](C)NC(=O)[C@H]([C@@H](C)O)NC1=O
	4.96	N=C(NCCCNCCCCCCCNCCCNC(=N)NC(=N)NCCC(c1ccccc1)c1ccccc1)NC(=N)NCCC(c1ccccc1)c1ccccc1
